Results reported in patent publication US10023563B2, “Cyclic compounds substituted by a condensed ring system” (BASF SE, priority 2014, dated 2018).

Columns and labels:
Format in all cases: in vivo
[1] = test system: Diamond Back Moth (Plutella xylostella); assay: Diamond back moth leaf-dip test; details: cabbage leaves dipped, 3rd instar larvae, 72 hours after treatment, read-out: mortality in comparison with untreated controls
Method: B.1 Diamond Back Moth (Plutella xylostella)
The active compound was dissolved at the desired concentration in a mixture of 1:1 (vol:vol) distilled water:aceteone. Surfactant (Kinetic HV) was added at a rate of 0.01% (vol/vol). The test solution was prepared at the day of use.
Leaves of cabbage were dipped in test solution and air-dried. Treated leaves were placed in petri dishes lined with moist filter paper and inoculated with ten 3rd instar larvae. Mortality was recorded 72 hours after treatment. Feeding damages were also recorded using a scale of 0-100%.

[2] = test system: Green Peach Aphid (Myzus persicae); assay: Green peach aphid systemic test on artificial diet; details: 72 h, adult aphids on treated artificial diet, 3 days, read-out: mortality in comparison with untreated controls
Description: B.2 Green Peach Aphid (Myzus persicae)
For evaluating control of green peach aphid (Myzus persicae) through systemic means the test unit consisted of 96-well-microtiter plates containing liquid artificial diet under an artificial membrane.
The compounds were formulated using a solution containing 75% v/v water and 25% v/v DMSO. Different concentrations of formulated compounds were pipetted into the aphid diet, using a custom built pipetter, at two replications.
After application, 5-8 adult aphids were placed on the artificial membrane inside the microtiter plate wells. The aphids were then allowed to suck on the treated aphid diet and incubated at about 23±1° C. and about 50±5% relative humidity for 3 days. Aphid mortality and fecundity was then visually assessed.

[3] = test system: Vetch Aphid (Megoura viciae); assay: Vetch aphid broad bean leaf disk test; details: foliar, 120 h, sprayed leaf disks, adult aphids, 5 days, read-out: mortality in comparison with untreated controls
Method: B.3 Vetch Aphid (Megoura viciae)
For evaluating control of vetch aphid (Megoura viciae) through contact or systemic means the test unit consisted of 24-well-microtiter plates containing broad bean leaf disks.
The compounds were formulated using a solution containing 75% v/v water and 25% v/v DMSO. Different concentrations of formulated compounds were sprayed onto the leaf disks at 2.5 μl, using a custom built micro atomizer, at two replications.
After application, the leaf disks were air-dried and 5-8 adult aphids placed on the leaf disks inside the microtiter plate wells. The aphids were then allowed to suck on the treated leaf disks and incubated at about 23±1° C. and about 50±5% relative humidity for 5 days. Aphid mortality and fecundity was then visually assessed.

[4] = test system: Tobacco Budworm (Heliothis virescens); assay: Tobacco budworm insect diet microtiter test; details: 120 h, egg and larval mortality on sprayed insect diet, 5 days, read-out: mortality in comparison with untreated controls
Method: B.4 Tobacco Budworm (Heliothis virescens)
For evaluating control of tobacco budworm (Heliothis virescens) the test unit consisted of 96-well-microtiter plates containing an insect diet and 15-25 H. virescens eggs.
The compounds were formulated using a solution containing 75% v/v water and 25% v/v DMSO. Different concentrations of formulated compounds were sprayed onto the insect diet at 10 μl, using a custom built micro atomizer, at two replications.
(§1) After application, microtiter plates were incubated at about 28±1° C. and about 80±5% relative humidity for 5 days. Egg and larval mortality was then visually assessed.

[5] = test system: Boll Weevil (Anthonomus grandis); assay: Boll weevil insect diet microtiter test; details: 120 h, egg and larval mortality on sprayed insect diet, 5 days, read-out: mortality in comparison with untreated controls
Method: B.5 Boll Weevil (Anthonomus grandis)
For evaluating control of boll weevil (Anthonomus grandis) the test unit consisted of 96-well-microtiter plates containing an insect diet and 5-10 A. grandis eggs.
The compounds were formulated using a solution containing 75% v/v water and 25% v/v DMSO. Different concentrations of formulated compounds were sprayed onto the insect diet at 5 μl, using a custom built micro atomizer, at two replications.
After application, microtiter plates were incubated at about 25±1° C. and about 75±5% relative humidity for 5 days. Egg and larval mortality was then visually assessed.

[6] = test system: Mediterranean Fruitfly (Ceratitis capitata); assay: Mediterranean fruitfly insect diet microtiter test; details: 120 h, egg and larval mortality on sprayed insect diet, 5 days, read-out: mortality in comparison with untreated controls
Method: B.6 Mediterranean Fruitfly (Ceratitis capitata)
For evaluating control of Mediterranean fruitfly (Ceratitis capitata) the test unit consisted of microtiter plates containing an insect diet and 50-80 C. capitata eggs. The compounds were formulated using a solution containing 75% v/v water and 25% v/v DMSO. Different concentrations of formulated compounds were sprayed onto the insect diet at 5 μl, using a custom built micro atomizer, at two replications.
as §1

[7] = test system: Orchid Thrips (Dichromothrips Corbetti); assay: Orchid thrips floral-immersion test; details: dipped orchid petals, adult thrips, 72 hours after treatment, read-out: mortality in comparison with untreated controls
Method: B.7 Orchid Thrips (Dichromothrips Corbetti)
Dichromothrips corbetti adults used for bioassay were obtained from a colony maintained continuously under laboratory conditions. For testing purposes, the test compound is diluted in a 1:1 mixture of acetone:water (vol:vol), plus Kinetic HV at a rate of 0.01% v/v.
Thrips potency of each compound was evaluated by using a floral-immersion technique. All petals of individual, intact orchid flowers were dipped into treatment solution and allowed to dry in Petri dishes. Treated petals were placed into individual resealable plastic along with about 20 adult thrips. All test arenas were held under continuous light and a temperature of about 28° C. for duration of the assay. After 3 days, the numbers of live thrips were counted on each petal. The percent mortality was recorded 72 hours after treatment.

[8] = test system: Rice Green Leafhopper (Nephotettix virescens); assay: Rice green leafhopper sprayed rice seedling test; details: sprayed potted rice seedlings, adults, after 72 hours, read-out: mortality in comparison with untreated controls
Method: B.8 Rice Green Leafhopper (Nephotettix virescens)
Rice seedlings were cleaned and washed 24 hours before spraying. The active compounds were formulated in 1:1 acetone:water (vol:vol), and 0.01% vol/vol surfactant (Kinetic HV) was added. Potted rice seedlings were sprayed with 5-6 ml test solution, air dried, covered with Mylar cages and inoculated with 10 adults. Treated rice plants were kept at about 28-29° C. and relative humidity of about 50-60%. Percent mortality was recorded after 72 hours.

[9] = test system: Southern Armyworm (Spodoptera eridania); assay: Southern armyworm sprayed lima bean test; details: foliar, 96 h, sprayed lima bean foliage, larvae, 4 days after treatment, read-out: mortality in comparison with untreated controls
Method: B.10 Southern Armyworm (Spodoptera eridania)
The active compounds were formulated in cyclohexanone as a 10,000 ppm solution supplied in tubes. The tubes were inserted into an automated electrostatic sprayer equipped with an atomizing nozzle and they served as stock solutions for which lower dilutions were made in 50% acetone:50% water (v/v). A nonionic surfactant (Kinetic®) was included in the solution at a volume of 0.01% (v/v).
Lima bean plants (variety Sieva) were grown 2 plants to a pot and selected for treatment at the 1st true leaf stage. Test solutions were sprayed onto the foliage by an automated electrostatic plant sprayer equipped with an atomizing spray nozzle. The plants were dried in the sprayer fume hood and then removed from the sprayer. Each pot was placed into perforated plastic bags with a zip closure. About 10 to 11 armyworm larvae were placed into the bag and the bags zipped closed. Test plants were maintained in a growth room at about 25° C. and about 20-40% relative humidity for 4 days, avoiding direct exposure to fluorescent light (24 hour photoperiod) to prevent trapping of heat inside the bags. Mortality and reduced feeding were assessed 4 days after treatment, compared to untreated control plants.

O=C(CNC(=O)c1ccc(C2=CSC(c3cc(Cl)cc(Cl)c3)(C(F)(F)F)C2)c2c1CCC2)NCC(F)(F)F (stereo not drawn) [Compound 1-3, 7-[2-(3,5-Dichlorophenyl)-2-(trifluoromethyl)-3H-thiophen-4-yl]-N-[2-oxo-2-(2,2,2-trifluoroethylamino)ethyl]indane-4-carboxamide]
≥ 75%: mortality at 300 ppm [1] | mortality at 2500 ppm [2] | mortality at 2500 ppm [3] | mortality at 2500 ppm [4] | mortality at 2500 ppm [5] | mortality at 2500 ppm [6] | mortality at 300 ppm [7] | mortality at 2500 ppm [8] | mortality at 10 ppm [9]
